Test results: patent publication US20040171543A1, “Matrix metalloproteinase inhibitors and methods for identification of lead compounds” (priority 2002, published 2004)
Like-named read-outs stand apart in the source and are kept apart here. Marks after values point to notes of the source that are not given here. Each block holds one compound with its values, some of them ahead of it.

Assays:
MMP-13 = MMP-13 (Homo sapiens, UniProt P45452); test: TPL (thiopeptolide) assay, MMP-13 (without and with AH); assay type: biochemical
Description: Thiopeptolide substrates show virtually no decomposition or hydrolysis in the absence of a matrix metalloproteinase enzyme. A typical thiopeptolide substrate commonly utilized for assays is Ac-Pro-Leu-Gly-thioester-Leu-Leu-Gly-OEt. A 100 μL assay mixture will contain 50 mM of 2-morpholinoethane sulfonic acid monohydrate (MES, pH 6.0) 10 mM CaCl2, 100 μM thiopeptolide substrate, and 1 mM 5,5′-dithio-bis-(2-nitro-benzoic acid) (DTNB). […] The change in absorbance at 405 mm is monitored on a Thermo Max microplate reader (Molecular Devices, Menlo Park, Calif.) at room temperature (22° C.). […] Assays are carried out with and without matrix metalloproteinase inhibitor compounds, and the amount of hydrolysis is compared for a determination of inhibitory activity of the test compounds.

MMP-9 = MMP-9 (Homo sapiens, UniProt P14780); test: TPL (thiopeptolide) assay, MMP-9; assay type: biochemical; details: read-out: IC50 MMP-9
Excerpt: (§1) The assays that can be used to evaluate the biological activity of various compounds for inhibiting MMPs are well-known and routinely used by those skilled in the art. They measure the amount by which a test compound reduces the hydrolysis of a thiopeptolide substrate caused by a matrix metalloproteinase enzyme. Such assays are described in detail by Ye et al., in Biochemistry, 1992;31(45): 11231-11235, which is incorporated herein by reference.
(§2) Thiopeptolide substrates show virtually no decomposition or hydrolysis in the absence of a matrix metalloproteinase enzyme. A typical thiopeptolide substrate commonly utilized for assays is Ac-Pro-Leu-Gly-thioester-Leu-Leu-Gly-OEt. A 100 μL assay mixture will contain 50 mM of 2-morpholinoethane sulfonic acid monohydrate (MES, pH 6.0) 10 mM CaCl2, 100 μM thiopeptolide substrate, and 1 mM 5,5′-dithio-bis-(2-nitro-benzoic acid) (DTNB). The thiopeptolide substrate concentration is varied from 10 to 800 μM to obtain Km and Kcat values. The change in absorbance at […] is monitored on a Thermo Max microplate reader (Molecular Devices, Menlo Park, Calif.) at room temperature (22° C.). The calculation of the amount of hydrolysis of the thiopeptolide substrate is based on E412=13600 m^−1 cm^−1 for the DTNB-derived product 3-carboxy-4-nitrothiophenoxide. Assays are carried out with and without matrix metalloproteinase inhibitor compounds, and the amount of hydrolysis is compared for a determination of inhibitory activity of the test compounds.

MMP-1 = target: T1, MMP-1 (Homo sapiens, UniProt P03956); test: TPL (thiopeptolide) assay, MMP-1; assay type: biochemical; details: read-out: IC50 MMP-1
T1 sequence (P03956 100-469): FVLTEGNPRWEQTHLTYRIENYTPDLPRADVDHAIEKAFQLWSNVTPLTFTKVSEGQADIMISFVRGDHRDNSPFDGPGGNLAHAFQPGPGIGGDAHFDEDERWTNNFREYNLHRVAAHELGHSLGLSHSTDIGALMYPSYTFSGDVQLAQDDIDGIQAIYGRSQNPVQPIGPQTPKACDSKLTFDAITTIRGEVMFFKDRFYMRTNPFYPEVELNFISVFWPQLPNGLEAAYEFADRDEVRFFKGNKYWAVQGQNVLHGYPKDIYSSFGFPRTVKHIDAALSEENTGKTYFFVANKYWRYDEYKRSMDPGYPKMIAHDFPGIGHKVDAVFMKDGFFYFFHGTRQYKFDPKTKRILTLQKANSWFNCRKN
Excerpt: as §1, §2

MMP-2 = target: T2, MMP-2 (Homo sapiens, UniProt P08253); test: TPL (thiopeptolide) assay, MMP-2; assay type: biochemical; details: read-out: IC50 MMP-2
T2 sequence (P08253 110-660): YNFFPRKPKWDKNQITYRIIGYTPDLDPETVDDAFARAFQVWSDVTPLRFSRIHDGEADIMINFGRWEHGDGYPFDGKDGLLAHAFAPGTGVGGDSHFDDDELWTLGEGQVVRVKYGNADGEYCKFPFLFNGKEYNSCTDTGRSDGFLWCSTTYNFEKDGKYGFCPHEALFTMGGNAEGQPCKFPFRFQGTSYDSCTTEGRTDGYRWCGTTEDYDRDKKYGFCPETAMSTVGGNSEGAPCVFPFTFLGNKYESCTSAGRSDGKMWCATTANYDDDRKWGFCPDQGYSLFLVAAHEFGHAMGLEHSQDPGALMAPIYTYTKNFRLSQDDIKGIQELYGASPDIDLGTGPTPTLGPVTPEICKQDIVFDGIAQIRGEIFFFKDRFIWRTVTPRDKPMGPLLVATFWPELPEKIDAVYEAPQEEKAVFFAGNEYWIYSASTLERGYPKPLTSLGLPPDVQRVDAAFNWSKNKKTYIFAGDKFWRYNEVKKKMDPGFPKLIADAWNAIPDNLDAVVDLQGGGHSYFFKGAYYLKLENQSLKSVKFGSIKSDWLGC
Excerpt: as §1, §2

MMP-3 = MMP-3 (Homo sapiens, UniProt P08254); test: TPL (thiopeptolide) assay, MMP-3; assay type: biochemical; details: read-out: IC50 MMP-3
Excerpt: as §1, §2

MMP-12 [1] = target: T3, MMP-12 (Homo sapiens, UniProt P39900); test: TPL (thiopeptolide) assay, MMP-12 (without and with AH); assay type: biochemical
Excerpt: as §1, §2
Although ligand size is not critical, a bulky ligand will block more binding sites of the MMP than a smaller ligand, and may thus prevent potential inhibitors that bind close to, but not at, the functional metal cation from being identified. Suitable ligands are therefore low molecular weight molecules, e.g. acetohydroxamic acid (CH3CONHOH) whose use is preferred.

MMP-14 = MMP-14 (Homo sapiens, UniProt P50281); test: TPL (thiopeptolide) assay, MMP-14; assay type: biochemical; details: read-out: IC50 MMP-14
Excerpt: as §1, §2

[2] = target: T4, MMP-13 catalytic domain (MMP-13CD) (Homo sapiens, UniProt P45452); test: Fluorigenic peptide-1 substrate based assay, MMP-13CD, with/without AcNHOH; assay type: biochemical; details: for IC50 Ratio (±): IC50 with AcNHOH divided by IC50 without; for IC50: FP1 substrate
T4 construct: The catalytic domain of the MMP-13 enzyme, namely matrix metalloproteinase-13 catalytic domain (“MMP-13CD”)
Description: The catalytic domain of the MMP-13 enzyme, namely matrix metalloproteinase-13 catalytic domain (“MMP-13CD”), rather than the corresponding full-length enzyme, MMP-13 was used in such assay.
50 mM HEPES buffer (pH 7.0)
2% DMSO (with or without inhibitor test compound)
1. Dispensed 2 μL inhibitor test sample (in 100% DMSO) into well.
2. Added 88 μL assay mixture and mixed well, avoiding bubbles.
3. Initiated reactions with 10 μL of 5 nM MMP-13CD; mixed well, avoiding bubbles.
4. Immediately measured the kinetics of the reactions at room temperature.
Alternatively, an endpoint read can also be used to determine reaction velocity provided the initial fluorescence of the solution, as recorded before addition of enzyme, is subtracted from the final fluorescence of the reaction mixture.

tumor growth = details: murine syngenetic tumor growth model; cited from earlier work
MMP-2 and MMP-9 = details: Wada et al.; cited from earlier work
MMP-12 [3] = target: T3, MMP-12; details: literature; cited from earlier work
MMP-7 = target: T5, MMP-7 (Homo sapiens, UniProt P09237); test: TPL (thiopeptolide) assay, MMP-7; assay type: biochemical; details: read-out: IC50 MMP-7
T5 sequence (P09237 95-267): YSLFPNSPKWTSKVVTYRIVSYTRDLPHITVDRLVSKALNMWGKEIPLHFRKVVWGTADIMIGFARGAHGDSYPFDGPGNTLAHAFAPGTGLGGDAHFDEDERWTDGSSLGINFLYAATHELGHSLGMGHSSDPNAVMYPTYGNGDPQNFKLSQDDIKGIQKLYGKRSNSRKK
Excerpt: as §1
as §2, with “Assays are carried out with and without matrix metalloproteinase inhibitor compounds, and the amount of hydrolysis is compared for a determination of inhibitory activity of the test compounds.” left out

MMP-8 = MMP-8 (Homo sapiens, UniProt P22894); test: TPL (thiopeptolide) assay, MMP-8; assay type: biochemical
Excerpt: as §1
as §2, with “Assays are carried out with and without matrix metalloproteinase inhibitor compounds, and the amount of hydrolysis is compared for a determination of inhibitory activity of the test compounds.” left out

[4] = TPL assay, without AH, read-out: IC50 MMP-13
[5] = TPL assay, without AH, read-out: IC50 MMP-12

T3 sequence (P39900 106-470): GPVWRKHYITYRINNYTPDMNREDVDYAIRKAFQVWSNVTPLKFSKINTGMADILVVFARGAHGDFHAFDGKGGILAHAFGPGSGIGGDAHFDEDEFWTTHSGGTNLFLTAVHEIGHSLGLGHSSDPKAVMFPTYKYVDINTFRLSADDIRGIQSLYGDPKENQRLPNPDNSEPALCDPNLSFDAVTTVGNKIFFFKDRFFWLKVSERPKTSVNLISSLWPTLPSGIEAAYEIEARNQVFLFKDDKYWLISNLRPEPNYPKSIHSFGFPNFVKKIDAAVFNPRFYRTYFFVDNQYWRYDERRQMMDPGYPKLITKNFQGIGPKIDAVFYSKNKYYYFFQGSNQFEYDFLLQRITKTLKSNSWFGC
MMP-9, sequence (P14780 94-707): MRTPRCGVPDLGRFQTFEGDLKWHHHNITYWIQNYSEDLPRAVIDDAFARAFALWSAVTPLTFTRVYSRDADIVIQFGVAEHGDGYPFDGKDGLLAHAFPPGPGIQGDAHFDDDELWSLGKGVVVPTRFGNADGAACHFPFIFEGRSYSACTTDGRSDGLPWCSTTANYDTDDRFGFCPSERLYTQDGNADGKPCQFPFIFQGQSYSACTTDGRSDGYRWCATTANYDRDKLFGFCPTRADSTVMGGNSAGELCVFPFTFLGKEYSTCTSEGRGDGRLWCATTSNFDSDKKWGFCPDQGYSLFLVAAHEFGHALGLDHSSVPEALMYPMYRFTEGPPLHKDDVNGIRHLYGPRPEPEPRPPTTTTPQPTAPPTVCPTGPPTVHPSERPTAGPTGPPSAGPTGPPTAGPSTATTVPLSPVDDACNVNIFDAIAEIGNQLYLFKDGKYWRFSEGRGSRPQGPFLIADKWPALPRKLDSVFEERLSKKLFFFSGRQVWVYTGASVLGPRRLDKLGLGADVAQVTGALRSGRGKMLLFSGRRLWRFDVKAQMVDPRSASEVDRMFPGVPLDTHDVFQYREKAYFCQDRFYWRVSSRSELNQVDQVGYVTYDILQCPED
MMP-3, sequence (P08254 100-477): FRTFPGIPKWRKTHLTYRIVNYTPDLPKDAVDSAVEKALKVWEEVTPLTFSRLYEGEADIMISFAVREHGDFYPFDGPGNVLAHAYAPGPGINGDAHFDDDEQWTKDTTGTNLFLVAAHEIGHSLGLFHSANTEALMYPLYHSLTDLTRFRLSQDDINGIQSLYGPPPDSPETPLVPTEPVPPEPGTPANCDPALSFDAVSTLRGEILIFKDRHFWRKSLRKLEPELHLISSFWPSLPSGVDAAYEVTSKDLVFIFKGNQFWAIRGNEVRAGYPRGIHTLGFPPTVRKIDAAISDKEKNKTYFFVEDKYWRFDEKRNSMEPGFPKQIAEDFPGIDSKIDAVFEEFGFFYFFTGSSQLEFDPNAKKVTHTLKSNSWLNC
MMP-8, sequence (P22894 101-467): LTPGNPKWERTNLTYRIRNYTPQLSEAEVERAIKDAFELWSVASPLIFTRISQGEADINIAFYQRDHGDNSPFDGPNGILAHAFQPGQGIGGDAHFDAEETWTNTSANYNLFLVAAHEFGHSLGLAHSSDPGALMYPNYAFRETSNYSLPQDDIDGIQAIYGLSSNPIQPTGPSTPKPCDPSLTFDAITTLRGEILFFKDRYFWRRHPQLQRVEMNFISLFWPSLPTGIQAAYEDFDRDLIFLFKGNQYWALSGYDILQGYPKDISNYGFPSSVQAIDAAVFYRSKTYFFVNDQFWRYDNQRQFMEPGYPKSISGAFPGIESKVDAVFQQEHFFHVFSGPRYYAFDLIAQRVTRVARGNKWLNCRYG

IC50 (MMP-13; [4]): 0.18 nM
IC50 (MMP-9): > 30000 nM
IC50 (MMP-1): > 100000 nM
IC50 (MMP-2): > 100000 nM
IC50 (MMP-3): 830 nM
IC50 (MMP-12 [1]; [5]): > 100000 nM
IC50 (MMP-14): > 100000 nM
Compound: COc1ccc(CC#Cc2ccc3c(c2)c(=O)n(Cc2ccc(C(=O)O)cc2)c(=O)n3C)cc1 [Example 2, 4-{6-[3-(4-Methoxy-phenyl)-prop-1-ynyl]-1-methyl-2,4-dioxo-1,4-dihydro-2H-quinazolin-3-ylmethyl}-benzoic acid]

IC50 Ratio (±) [2]: 0.82
Compound: CCOC(=O)/C=C/c1ccc(-n2ccnc2)cc1 [Entry 6]

IC50 Ratio (±) [2]: 1.16
Compound: Cc1c(-c2ccc(-n3ccnc3)cc2)[nH][nH]c1=O [Entry 5]

IC50 ([2]; 0 mM AcNHOH, read-out: Without AcNHOH IC50): 2300 nM
IC50 ([2]; 15 mM AcNHOH (1 Kd), read-out: With AcNHOH IC50): 200 nM
IC50 Ratio (±) [2]: 0.08
Compound: O=C(NC(=S)NCc1cc(-c2ccccc2)no1)c1ccccc1 [Entry 10]

IC50 Ratio (±) [2]: 0.47^a
Compound: Nc1ccc(-c2ccc(S(N)(=O)=O)cc2)cc1 [Entry 1]

Compound: CC1(C)OCC([C@@H](CS(=O)(=O)c2ccc(Oc3ccc(OC(F)(F)F)cc3)cc2)N(O)C=O)O1 (some centres unmarked)
Antitumor activity (tumor growth): demonstrated antitumor activity
Selectivity for inhibition of MMP-2 and MMP-9 over MMP-1 (MMP-2 and MMP-9): selective

IC50 Ratio (±) [2]: 0.41
Compound: COc1ccc(C(=O)NCc2cccnc2)cc1C(=O)NCc1cccnc1 [Entry 7]

Compound: COc1ccc(S(=O)(=O)N(Cc2cccnc2)[C@@H](C(=O)NO)C(C)C)cc1 [CGS27023A]
IC50 (MMP-12 [3]): 2 nM

IC50 (MMP-7): > 30000 nM
IC50 (MMP-13; [4]): 0.14 nM
IC50 (MMP-13; in presence of acetohydroxamic acid (+AH), read-out: IC50 MMP13 (+AH)): 63 nM
IC50 (MMP-8): > 30000 nM
IC50 (MMP-9): > 30000 nM
IC50 (MMP-1): > 30000 nM
IC50 (MMP-2): > 30000 nM
IC50 (MMP-3): > 30000 nM
IC50 (MMP-12 [1]; [5]): > 400 nM
IC50 (MMP-12 [1]; in presence of acetohydroxamic acid (+AH), read-out: IC50 MMP12 (+AH)): 12 nM
IC50 (MMP-14): > 30000 nM
Compound: O=C(O)c1ccc(CNC(=O)c2cc(-c3ccc(OC(F)(F)F)cc3)cs2)cc1 [Example 5, 4-({[4-(4-Trifluoromethoxyphenyl)thien-2-yl]carboxamido}methyl) benzoic acid]

IC50 Ratio (±) [2]: 0.04
Compound: NS(=O)(=O)c1ccc(-c2ccc([N+](=O)O)cc2)cc1 [Entry 2]
